Like-named read-outs stand apart in the source and are kept apart here.
Key:
HCC1954 = experiment: Viability assay, BRCA1 WT cell line HCC1954; format: cell-based; details: read-out: HCC1954 rel IC50
Text: (§1) Table 1 also indicates IC50 values in a viability assay for a non-isogenic pair of BRCA1 mutant (column 5-MDA-MB-436) and BRCA1 WT (column 6—HCC1954) cell lines. These values indicate the effect of treatment with compound on cell survival.

MDA-MB-436 = experiment: Viability assay, BRCA1 mutant cell line MDA-MB-436; format: cell-based; details: BRCA1 mutant MDA-MB-436, read-out: MDA-MB-436 rel IC50
Text: as §1

USP1-UAF1 = USP1-UAF1 (Homo sapiens, UniProt O94782); experiment: Ubiquitin Rhodamine assay of USP1-UAF1 activity; format: biochemical
Protocol: Certain compounds of the disclosure were assessed for USP1-UAF1 activity in a Ubiquitin Rhodamine assay as described in Biology Example 1.

monoubiquitinated PCNA = experiment: AlphaLISA assay measuring monoubiquitinated PCNA in MDA-MB-436; format: cell-based; details: read-out: Alpha Lisa IC50
Text: Table 1 also indicates IC50 values for exemplary compounds in an AlphaLISA assay measuring monoubiquitinated PCNA in a BRCA1 mutant cell line (MDA-MB-436; column 7).

[1] = Homo sapiens, MDA-MB-436, monoubiquitinated PCNA
[2] = Homo sapiens, HCC1954, viability
[3] = Homo sapiens, MDA-MB-436, viability

Sequence of USP1-UAF1 (O94782 whole entry): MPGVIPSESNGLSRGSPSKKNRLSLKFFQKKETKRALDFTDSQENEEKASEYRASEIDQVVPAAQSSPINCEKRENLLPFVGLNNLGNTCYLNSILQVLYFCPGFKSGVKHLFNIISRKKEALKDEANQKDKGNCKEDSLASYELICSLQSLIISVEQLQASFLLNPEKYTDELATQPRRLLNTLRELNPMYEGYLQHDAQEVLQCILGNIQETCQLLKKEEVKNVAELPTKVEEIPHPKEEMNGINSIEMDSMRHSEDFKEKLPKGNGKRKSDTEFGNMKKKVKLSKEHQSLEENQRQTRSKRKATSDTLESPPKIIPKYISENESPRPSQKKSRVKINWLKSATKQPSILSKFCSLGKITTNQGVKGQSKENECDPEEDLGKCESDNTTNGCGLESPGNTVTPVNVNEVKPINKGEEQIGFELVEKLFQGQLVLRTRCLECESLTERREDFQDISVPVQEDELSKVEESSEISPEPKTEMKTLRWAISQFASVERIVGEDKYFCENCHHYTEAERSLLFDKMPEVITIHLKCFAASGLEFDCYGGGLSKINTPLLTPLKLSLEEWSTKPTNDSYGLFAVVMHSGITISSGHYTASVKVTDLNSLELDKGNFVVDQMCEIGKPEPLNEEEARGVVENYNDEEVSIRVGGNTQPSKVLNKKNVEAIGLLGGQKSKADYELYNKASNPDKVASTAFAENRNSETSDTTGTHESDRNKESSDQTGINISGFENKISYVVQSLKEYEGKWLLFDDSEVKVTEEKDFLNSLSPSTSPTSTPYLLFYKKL
Sequence of USP1-UAF1 (Q8TAF3 whole entry partner): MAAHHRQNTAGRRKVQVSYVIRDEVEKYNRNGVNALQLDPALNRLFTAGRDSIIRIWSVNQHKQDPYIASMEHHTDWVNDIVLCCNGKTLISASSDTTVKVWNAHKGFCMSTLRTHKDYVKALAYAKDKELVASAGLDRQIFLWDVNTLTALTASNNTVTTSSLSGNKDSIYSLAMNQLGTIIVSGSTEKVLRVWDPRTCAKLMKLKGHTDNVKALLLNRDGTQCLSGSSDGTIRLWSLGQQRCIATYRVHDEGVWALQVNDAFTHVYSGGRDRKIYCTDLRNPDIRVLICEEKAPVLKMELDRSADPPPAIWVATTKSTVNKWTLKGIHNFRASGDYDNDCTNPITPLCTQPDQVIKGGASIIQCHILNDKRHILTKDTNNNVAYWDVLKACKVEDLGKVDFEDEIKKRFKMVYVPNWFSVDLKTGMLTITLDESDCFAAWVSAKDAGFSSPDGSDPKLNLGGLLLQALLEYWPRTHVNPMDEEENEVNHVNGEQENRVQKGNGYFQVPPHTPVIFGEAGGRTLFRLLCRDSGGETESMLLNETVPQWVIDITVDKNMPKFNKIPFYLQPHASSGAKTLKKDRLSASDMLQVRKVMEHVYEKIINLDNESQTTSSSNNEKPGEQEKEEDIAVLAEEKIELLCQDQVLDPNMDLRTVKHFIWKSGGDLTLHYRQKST

Compound	IC50 (HCC1954; viability)	IC50 (MDA-MB-436; viability)	IC50 (USP1-UAF1)	IC50 (monoubiquitinated PCNA; [1])	IC50 (monoubiquitinated PCNA; monoubiquitinated PCNA)	IC50 (HCC1954; [2])	IC50 (MDA-MB-436; [3])
CC(C)c1ccccc1-c1ncc2c(n1)n(C(C)c1ccc(-c3nc(Cl)cn3C)cc1)c(=N)n2C (single isomer, unassigned) [Example A-9c, 9-(1-(4-(4-chloro-1-methyl-1H-imidazol-2-yl)phenyl)ethyl)-2-(2-isopropylphenyl)-7-methyl-7,9-dihydro-8H-purin-8-imine]	≥ 10000 nM	250 to 10000 nM	30 to 100 nM	100 to 250 nM	–	–	–
CC(C)c1ccccc1-c1ncc2c(n1)n(C(C)c1ccc(-c3nc(Cl)cn3C)cc1)c(=N)n2C (single isomer, unassigned) [Example A-9d, 9-(1-(4-(4-chloro-1-methyl-1H-imidazol-2-yl)phenyl)ethyl)-2-(2-isopropylphenyl)-7-methyl-7,9-dihydro-8H-purin-8-imine]	250 to 10000 nM	< 100 nM	< 30 nM	–	< 100 nM	–	–
Cc1nc(-c2ccccc2Cl)nc2c1n(C)c(=N)n2Cc1ccc(-c2nc(C(F)(F)F)cn2C)cc1 (single isomer, unassigned) [Example A-15a, 2-(2-chlorophenyl)-6,7-dimethyl-9-(4-(1-methyl-4-(trifluoromethyl)-1H-imidazol-2-yl)benzyl)-7,9-dihydro-8H-purin-8-imine]	–	–	30 to 100 nM	250 to 10000 nM	–	≥ 10000 nM	250 to 10000 nM
Cc1nc(-c2ccccc2-c2ccccc2Cl)nc2c1n(C)c(=N)n2Cc1ccc(-c2nc(C(F)(F)F)cn2C)cc1 (single isomer, unassigned) [Example A-15c, 2-(2′-chloro-[1,1′-biphenyl]-2-yl)-6,7-dimethyl-9-(4-(1-methyl-4-(trifluoromethyl)-1H-imidazol-2-yl)benzyl)-7,9-dihydro-8H-purin-8-imine]	–	–	< 30 nM	< 100 nM	–	250 to 10000 nM	100 to 250 nM
CC(C)c1ccccc1-c1nc(Cl)c2c(n1)n(Cc1ccc(-c3nc(C(F)(F)F)cn3C)cc1)c(=N)n2C (single isomer, unassigned) [Example A-22a, 6-chloro-2-(2-isopropylphenyl)-7-methyl-9-(4-(1-methyl-4-(trifluoromethyl)-1H-imidazol-2-yl)benzyl)-7,9-dihydro-8H-purin-8-imine]	–	–	< 30 nM	250 to 10000 nM	–	250 to 10000 nM	250 to 10000 nM
CC(C)c1ccccc1-c1nc(-c2ccccc2C(C)C)c2c(n1)n(Cc1ccc(-c3nc(C(F)(F)F)cn3C)cc1)c(=N)n2C (single isomer, unassigned) [Example A-22b, 2,6-bis(2-isopropylphenyl)-7-methyl-9-(4-(1-methyl-4-(trifluoromethyl)-1H-imidazol-2-yl)benzyl)-7,9-dihydro-8H-purin-8-imine]	–	–	30 to 100 nM	250 to 10000 nM	–	250 to 10000 nM	250 to 10000 nM
CC(C)c1ccccc1-c1ncc2c(n1)n(C(C)C1CCN(c3nc(Cl)cn3C)CC1)c(=N)n2C (single isomer, unassigned) [Example A-26c, 9-(1-(1-(4-chloro-1-methyl-1H-imidazol-2-yl)piperidin-4-yl)ethyl)-2-(2-isopropylphenyl)-7-methyl-7,9-dihydro-8H-purin-8-imine]	250 to 10000 nM	–	100 to 10000 nM	250 to 10000 nM	–	–	250 to 10000 nM
CC(C)c1ccccc1-c1ncc2c(n1)n(Cc1ccc(-c3nc(C(F)(F)F)cn3C)c(F)c1)c(=N)n2C [Example A-33, 9-(3-fluoro-4-(1-methyl-4-(trifluoromethyl)-1H-imidazol-2-yl)benzyl)-2-(2-isopropylphenyl)-7-methyl-7,9-dihydro-8H-purin-8-imine]	–	–	< 30 nM	< 100 nM	–	–	–
CC(C)c1ccccc1-c1ncc2c(n1)n(Cc1cc(F)c(-c3nc(C(F)(F)F)cn3C)c(F)c1)c(=N)n2C [Example A-43, 9-(3,5-difluoro-4-(1-methyl-4-(trifluoromethyl)-1H-imidazol-2-yl)benzyl)-2-(2-isopropylphenyl)-7-methyl-7,9-dihydro-8H-purin-8-imine]	–	–	30 to 100 nM	250 to 10000 nM	–	–	–
Cn1cc(C(F)(F)F)nc1-c1ccc(Cn2c(=N)n(C)c3cnc(-c4c(C(F)(F)F)cnn4C)nc32)cc1 [Example T-010]	–	–	30 to 100 nM	100 to 250 nM	–	–	250 to 10000 nM
Cn1cc(C(F)(F)F)nc1-c1ccc(Cn2c(=N)n(C)c3cnc(-c4ccccc4C(F)(F)F)nc32)cc1 [Example T-045]	–	–	< 30 nM	100 to 250 nM	–	–	< 100 nM
Cn1cc(C(F)(F)F)nc1-c1ccc(Cn2c(=N)n(C)c3cnc(-c4c(C(F)(F)F)nn(C)c4C#N)nc32)cc1 [Example T-072]	–	–	100 to 10000 nM	–	–	250 to 10000 nM	250 to 10000 nM
Cn1cc(C(F)(F)F)nc1-c1ccc(Cn2c(=N)n(C)c3cnc(-c4ccccc4C(F)(F)F)nc32)cn1 [Example T-073]	–	–	100 to 10000 nM	–	–	≥ 10000 nM	250 to 10000 nM
COc1ccn(-c2ccc(Cn3c(=N)n(C)c4cnc(-c5ccccc5C(C)C)nc43)cc2F)n1 [Example T-074]	–	–	100 to 10000 nM	–	–	250 to 10000 nM	250 to 10000 nM
CNc1ncccc1-c1ncc2c(n1)n(Cc1ccc(-c3nc(C(F)(F)F)cn3C)cc1)c(=N)n2C [Example T-075]	–	–	100 to 10000 nM	–	–	250 to 10000 nM	250 to 10000 nM
Cn1c(=N)n(Cc2ccc(-c3nc(C(F)(F)F)cn3C3COC3)cc2)c2nc(-c3ccccc3C(F)(F)F)ncc21 [Example T-077]	–	–	100 to 10000 nM	–	–	≥ 10000 nM	250 to 10000 nM
Cc1cc(-c2nc(C(F)(F)F)cn2C)cc(C)c1Cn1c(=N)n(C)c2cnc(-c3ccccc3C(F)(F)F)nc21 [Example T-080]	–	–	100 to 10000 nM	–	–	250 to 10000 nM	250 to 10000 nM
Cn1c(=N)n(Cc2ccc(-c3nc(C(F)(F)F)cn3CCO)cc2)c2nc(-c3ccccc3C(F)(F)F)ncc21 [Example T-083]	–	–	100 to 10000 nM	–	–	≥ 10000 nM	250 to 10000 nM
COc1ncnc(C2CC2)c1-c1ncc2c(n1)n(C1(c3ccc(-c4nc(C(F)(F)F)cn4C)cc3)CC1)c(=N)n2C [Example T-086]	–	–	–	100 to 250 nM	–	≥ 10000 nM	100 to 250 nM
COc1ncnc(C2CC2)c1-c1ncc2c(n1)n(C[C@H]1CC[C@H](c3nc(C(F)(F)F)cn3C)CC1)c(=N)n2C [Example T-089]	–	–	100 to 10000 nM	–	–	≥ 10000 nM	250 to 10000 nM
CCOc1cc(C(F)(F)F)nn1-c1ccc(Cn2c(=N)n(C)c3cnc(-c4ccccc4C(F)(F)F)nc32)cn1 [Example T-091]	–	–	–	250 to 10000 nM	–	≥ 10000 nM	250 to 10000 nM
CC(C)c1cnccc1-c1ncc2c(n1)n(Cc1ccc(-c3nc(C(F)(F)F)cn3C)cc1)c(=N)n2C [Example T-096]	–	–	100 to 10000 nM	–	–	≥ 10000 nM	250 to 10000 nM
Cn1cc(C(F)(F)F)nc1-c1ccc(Cn2c(=N)n(CC(F)(F)F)c3cnc(-c4c(C(F)(F)F)cnn4C)nc32)cc1 [Example T-101]	–	–	< 30 nM	–	–	250 to 10000 nM	100 to 250 nM
COc1ncnc(C2CC2)c1-c1ncc2c(n1)n(Cc1ccc(-c3nc(C(F)(F)F)cn3C)cc1O)c(=N)n2C [Example T-133, 2-[[2-(4-cyclopropyl-6-methoxy-pyrimidin-5-yl)-8-imino-7-methyl-purin-9-yl]methyl]-5-[1-methyl-4-(trifluoromethyl)imidazol-2-yl]phenol]	–	–	30 to 100 nM	–	–	≥ 10000 nM	< 100 nM
